From patent US20250154099A1, “PREPARATION METHOD OF 2-PHENYLINDOLE DERIVATIVES AND APPLICATION THEREOF” (Shihezi University, priority 2022, published 2025) come the findings set out here.

Data set [1] deals with Candida albicans CA10. Description: Checkerboard microdilution assay of compound combined with fluconazole, FICI model. Format: cell-based. The conditions noted are these: CA10. As for the experimental part: The concentration of Candida albicans CA10 is adjusted to 0.5-2.5×10^3 CFU/mL by using RPMI-1640 medium, and the diluted bacterial solution is used for preparing a working solution of the compound and the azole drug with double concentration gradient. 50 μl of working solution of double concentration of azole drugs and working solution of double concentration of the compound to be detected at each concentration gradient are added in the longitudinal (A-H) direction and transverse (1-12) direction of the 96-well plate respectively, so that the final drug concentration range of fluconazole is 4-64 μg/ml, and the drug concentration range of the compound is 256-16 μg/ml. The 96-well plate is cultured in a constant temperature incubator at 35° C. for 24 h. The amount of viable bacteria is detected with an XTT cell proliferation assay kit, and the absorbance of each well at 490 nm wavelength is detected by the microplate reader. Growth rate=dosing well value/control well value×100%, and inhibition rate=1−growth rate. The MIC when the inhibition rate is about 80% is a break point of the combination of two drugs.
The combination data of the compound and the azole drug collected by the checkerboard microdilution assay are analyzed by an FICI (fractional inhibitory concentration index) model, and the interaction effects are evaluated.
The FICI model can be expressed by the following formula: […]
Wherein: MICA and MICB are MIC values of drug A and drug B used separately, while MICAB and MICBA are the concentrations of drug A and drug B corresponding to the minimum effective dose of the combination of drug A and drug B.
(In general: Broth dilution looks for growth in wells or tubes with falling amounts of substance.)

In data set [2] the test system is Escherichia coli BNCC336902. Kind of data set: MIC by microdilution method, sensitive Escherichia coli. Format: cell-based. To be noted: BNCC336902, sensitive strain, 35° C., 24 h, minimum concentration with inhibition rate greater than 80%, read-out: MIC Escherichia coli. The source says: (§1) Used bacteria: including drug-resistant bacteria and sensitive bacteria: the used sensitive strains include Cryptococcus neoformans BNCC225501, Candida albicans BNCC186382, Aspergillus fumigatus Fresenius BNCC338385, Escherichia coli BNCC336902, Staphylococcus aureus BNCC186335 and Pseudomonas aeruginosa Migula BNCC337940, and the used drug-resistant Candida albicans is clinically isolated azole multi-drug resistant Candida albicans (CA10) donated by Qianfoshan Hospital in Shandong Province. The strains are stored in normal saline containing 20% glycerol at −80° C. for a long time. Before operation, the strains are lined and transferred to a YPD solid plate, and subjected to static culture at 30° C. for 24 h; single colonies are selected and transferred to a YPD liquid medium, and cultured at 200 rpm at 30° C. overnight; and the overnight cultured bacterial solution is inoculated into a new YPD liquid medium at a ratio of about 1:100, and subjected to shaking culture at 200 rpm at 30° C. for 4 h so that Candida albicans is in a logarithmic phase.
(§2) Culture medium: the culture medium used by the microdilution method is RPMI-1640 culture medium (Gibco).
(§3) 1.2 Operation and results of detection of minimum inhibitory concentration (MIC) of the compounds and the azole drugs by the microdilution method: the MIC of the synthesized compound and the azole drug fluconazole for the standard strains is detected by the microdilution method according to fungal sensitivity detection method (M27-A3) established by the Clinical and Laboratory Standards Institute (CLSI). Specific steps are as follows: the prepared strain concentration is adjusted to 0.5-2.5×10^3 CFU/mL by using RPMI-1640 medium. 200 μL of bacterial solution containing the highest concentration of the drug to be detected is added into the first well of a 96-well plate, and 100 μL of blank bacterial solution without drug is added into each of the other wells; the bacterial solution is diluted to a series of concentration gradients by a double gradient dilution method; the well plate is subjected to static culture at constant temperature of 35° C. for 24 h; after the absorbance (OD) of each concentration gradient at 570 nm is detected by a microplate reader and the absorbance of a blank medium is subtracted, the growth rate=dosing hole value/control hole value ×100%, the inhibition rate=1−growth rate, and the minimum concentration with the inhibition rate greater than 80% is the minimum inhibitory concentration (MIC) value.

Data set [3] concerns RAW 264.7 murine macrophage cells. Kind of data set: MTT cytotoxicity test on RAW 264.7. Format: cell-based, mouse. As for the experimental part:
3.1.1 Cell line: RAW 264.7 murine macrophage cells are donated by Shihezi University College of Pharmacy, and cultured in a 37° C. constant temperature incubator with high glucose DMEM medium (Gibco), 10% FBS serum (Gibco) and 5% CO2, and subculturing and related experimental operation are conducted when cell fusion degree reaches about 70-80%.
3.1.2 Materials and reagents: fetal bovine serum (American BI company), DMEM high glucose medium (American Gibco company), penicillin-streptomycin solution (Shanghai Solarbio company), PBS buffer solution (American Gibco company), isopropyl alcohol (analytically pure), dimethyl sulfoxide (DMSO) (Shanghai Solarbio company), and MTT powder (Shanghai Solarbio company).
Logarithmic RAW 264.7 cells are taken; cell suspension is prepared with a complete medium; the concentration of the cell suspension is adjusted to about 5×10^4 cells/mL; 200 μl of cell suspension is added into each hole of the 96-well culture plate and cultured in 5% CO2 in an incubator at 37° C. for about 24 h until the cells grow to the cell wall (at density of 50%); the medium is absorbed by a 5 ml needle tube or negative pressure; RAW 264.7 is divided into a blank group, a solvent control group and a drug administration group; in the blank group, there is no cell, and a medium, MTT and DMSO are added; in the solvent control group, cells, the same concentration of drug dissolving media, culture solution, MTT and DMSO are added; in the drug administration group, medical solution for diluting the concentration gradient with serum-free medium (containing 1% PE) is added; each concentration shall set at least 3 complex wells; 100 μl of medical solution is added into each well; and the culture plate is continued to be incubated in the incubator for 24 h. […] 100 μl of DMSO is added into each well to dissolve formazan crystals, and shaken in a shaker for 10 min at low speed to fully dissolve the crystals. The absorbance (OD) value of each well at 490 nm is determined by the microplate reader, and the cell viability is calculated by the formula: Cell viability (%)=(OD drug administration group−OD blank group)/(OD solvent control group−OD blank group)× 100%.
OD values at 490 nm are determined by the experimental method in each group, and the data are subjected to one-way analysis of variance by Graphpad prism 8.0 software.
Background: Formazan colour is commonly taken as a measure of viable cells.

In data set [4] the test system is Candida albicans BNCC186382. Kind of data set: MIC by microdilution method, sensitive Candida albicans. Format: cell-based. The conditions noted are these: Candida albicans, BNCC186382; sensitive strain; 35° C., 24 h; minimum concentration with inhibition rate greater than 80%; read-out: MIC Candida albicans.
Text: as §1, §2, §3

In data set [5] the test system is Drug-resistant Candida albicans CA10. Description: MIC by microdilution method, drug-resistant Candida albicans CA10. Format: cell-based. The conditions noted are these: clinically isolated azole multi-drug resistant strain CA10; 24 h.
Text: as §1, §2, §3

Data set [6] relates to Cryptococcus neoformans BNCC225501. Description: MIC by microdilution method, sensitive Cryptococcus neoformans. The data set is classed as cell-based. The conditions noted are these: Cryptococcus neoformans, BNCC225501; sensitive strain; 35° C., 24 h; minimum concentration with inhibition rate greater than 80%; read-out: MIC Cryptococcus neoformans.
Text: as §1, §2, §3

Data set [7] relates to Staphylococcus aureus BNCC186335. Description: MIC by microdilution method, sensitive Staphylococcus aureus. Format: cell-based. The conditions noted are these: BNCC186335, sensitive strain, 35° C., 24 h, minimum concentration with inhibition rate greater than 80%, read-out: MIC Staphylococcus aureus.
Text: as §1, §2, §3

For data set [8], the system named is Pseudomonas aeruginosa Migula BNCC337940. Description: MIC by microdilution method, sensitive Pseudomonas aeruginosa Migula. The data set is classed as cell-based. To be noted: sensitive strain, 35° C., 24 h, minimum concentration with inhibition rate greater than 80%, read-out: MIC Pseudomonas aeruginosa Migula.
Text: as §1, §2, §3

For data set [9], the system named is Aspergillus fumigatus Fresenius BNCC338385. Kind of data set: MIC by microdilution method, sensitive Aspergillus fumigatus Fresenius. To be noted: Aspergillus fumigatus; sensitive strain; 35° C., 24 h; minimum concentration with inhibition rate greater than 80%; read-out: MIC Aspergillus fumigatus Fresenius. Format: cell-based.
Text: as §1, §2, §3

Converted amounts (≈) assume the structure as drawn.

As to `Fc1ccc2cc(-c3ccccc3)[nH]c2c1` [Compound 5], the “MIC of compound combined” value in data set [1] (compound concentration in combination with fluconazole, inhibition rate about 80%) came to 64 µg/mL. Besides, the FICI in [1] (compound plus fluconazole) is listed as 0.313. In addition, the “MIC of azole (fluconazole) combined” value in data set [1] (fluconazole concentration in combination with the compound, inhibition rate about 80%) is 8 µg/mL. For the same compound, the MIC was over 256 µg/mL in data set [1] (Candida albicans, compound alone, read-out: MIC of compound used separately); 16 µg/mL (≈ 75.7 µM) in data set [2]; 16 µg/mL (≈ 75.7 µM) in [4]; 256 µg/mL (≈ 1210 µM) in data set [6]; 32 µg/mL (≈ 151 µM) in data set [7]; 256 µg/mL (≈ 1210 µM) in data set [8]. Also, the MIC in data set [9] is 16 µg/mL (≈ 75.7 µM). The “toxicity to RAW 264.7 cells” value in data set [3] (24 h) is “no obvious toxicity”. For the same compound, the “cell proliferation of RAW 264.7” value in data set [3] (24 h, different concentrations) is recorded as “may inhibit cell proliferation in a concentration-dependent way”. The IC50 in [3] (Mus musculus, RAW264.7, 24 h, read-out: IC50 RAW 264.7 cell viability) was determined as 12.5 µM. For the same compound, the MIC80 Drug-resistant Candida albicans CA10 in data set [5] amounted to 256 µg/mL (≈ 1210 µM).

The MIC is the smallest concentration in the dilution series that meets the test's criterion for growth inhibition. By IC50 is commonly meant the concentration at which inhibition is half-maximal.
